# Test results: patent publication US20240294484A1, “HERBICIDAL ARYLDIHYDROFURANE CARBOXYLATES” (BASF SE, priority 2021, published 2024)
# What was measured:
# AMARE [1] = assay: greenhouse pre-emergence herbicidal test; assay type: in vivo, Amaranthus retroflexus; settings: pre-emergence method, application rate 1,000 kg/ha; scale from 0 to 100
# Excerpt: (§1) The culture containers used were plastic flowerpots containing loamy sand with approximately 3.0% of humus as the substrate. The seeds of the test plants were sown separately for each species.
# (§2) For the pre-emergence treatment, the active ingredients, which had been suspended or emulsified in water, were applied directly after sowing by means of finely distributing nozzles. The containers were irrigated gently to promote germination and growth and subsequently covered with transparent plastic hoods until the test plants had rooted. This cover caused uniform germination of the test plants, unless this had been impaired by the active ingredients. For the post-emergence treatment, the test plants were first grown to a height of 3 to 15 cm, depending on the plant habit, and only then treated with the active ingredients which had been suspended or emulsified in water. For this purpose, the test plants were either sown directly and grown in the same containers, or they were first grown separately as seedlings and transplanted into the test containers a few days prior to treatment.
# (§3) Depending on the species, the test plants were kept at 10-25° C. or 20-35° C., respectively. The test period extended over 2 to 4 weeks. During this time, the test plants were tended, and their response to the individual treatments was evaluated.
# (§4) Evaluation was carried out using a scale from 0 to 100. […]
# ECHCG = assay: greenhouse pre-emergence herbicidal test; assay type: in vivo, Echinocloa crus-galli; settings: pre-emergence method, application rate 1,000 kg/ha; scale from 0 to 100
# Excerpt: as §1, §2, §3, §4
# AVEFA = assay: greenhouse post-emergence herbicidal test; assay type: in vivo, Avena fatua; settings: post-emergence method, application rate 1,000 kg/ha; scale from 0 to 100
# Excerpt: as §1, §2, §3, §4
# AMARE [2] = assay: greenhouse post-emergence herbicidal test; assay type: in vivo, Amaranthus retroflexus; settings: post-emergence method, application rate 1,000 kg/ha; scale from 0 to 100
# Excerpt: as §1, §2, §3, §4
# APESV = assay: greenhouse pre-emergence herbicidal test; assay type: in vivo, Apera spica-venti; settings: pre-emergence method, application rate 1,000 kg/ha; scale from 0 to 100
# Excerpt: as §1, §2, §3, §4
molecule,measurement,setting,value
"ethyl 4-(3,5-difluorophenyl)-2-methyl-3H-furan-2-carboxylic acid [compound 12]",herbicidal activity against AMARE,AMARE [1],good herbicidal activity (A good herbicidal activity is given at values of 65 to 90)
same,herbicidal activity against ECHCG,ECHCG,good herbicidal activity (A good herbicidal activity is given at values of 65 to 90)
"O=C(O)C1(C(F)(F)F)CC(c2cc(F)cc(F)c2)=CO1 (stereo not drawn) [compound 17, 4-(3,5-difluorophenyl)-2-(trifluoromethyl)-3H-furan-2-carboxylic acid]",herbicidal activity against AVEFA,AVEFA,very good herbicidal activity (a very good herbicidal activity is given at values of 90 to 100)
"CCOC(=O)C1CC(c2cc(F)cc(F)c2)=CO1 (stereo not drawn) [compound 11, ethyl 4-(3,5-difluorophenyl)-2,3-dihydrofuran-2-carboxylate]",herbicidal activity against AMARE,AMARE [2],very good herbicidal activity (a very good herbicidal activity is given at values of 90 to 100)
"ethyl 4-(3,5-dichlorophenyl)-2-methyl-3H-furan-2-carboxylic acid [compound 14]",herbicidal activity against APESV,APESV,very good herbicidal activity (a very good herbicidal activity is given at values of 90 to 100)
same,herbicidal activity against ECHCG,ECHCG,very good herbicidal activity (a very good herbicidal activity is given at values of 90 to 100)
